Source: ChEMBL document CHEMBL1201862, “PubChem BioAssay data set” (2004)
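Protocol summary: plate cells (96-well), add compound at 5 concentrations, incubate 48 h, interpolate endpoints linearly. GI50: concentration for 50% inhibition of growth.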 Active and inactive are the calls of the source. Cut-off read from the data, not from the text of the source: active = GI50 up to about 1.1 µM and inactive = higher.

How the values were obtained:
Assay in all cases: DTP human tumour cell line panel, 48 h
[1] = tested on: HL-60
[2] = tested on: SNB-75
[3] = tested on: A498
[4] = tested on: TK-10
[5] = tested on: SK-MEL-5
[6] = tested on: SNB-78
[7] = tested on: COLO 205
[8] = tested on: SK-OV-3
[9] = tested on: HOP-92
[10] = tested on: KM12
[11] = tested on: SR
[12] = tested on: LXFL 529
[13] = tested on: NCI-H522
[14] = tested on: EKVX
[15] = tested on: NCI-H226
[16] = tested on: KM-20L2
[17] = tested on: Malme-3M
[18] = tested on: HT-29
[19] = tested on: NCI-H23

Measured: GI50

Cc1cc(O)nc(NN2C(Cl)C(=O)C2c2ccc(O)cc2)n1 (stereo not given)
inactive: [1] 2.79 µM | [2] 1.87 µM | [3] 9.75 µM | [4] 14.9 µM | [5] 8.49 µM | [6] 5.87 µM | [7] 18.7 µM | [8] 11.3 µM | [9] 14.9 µM | [10] 8.63 µM | [11] 3.08 µM | [12] 10.3 µM | [13] 15 µM | [14] 13.6 µM | [15] 10.5 µM | [16] 18.7 µM | [17] 14.4 µM | [18] 6.65 µM | [19] 9.62 µM

CS(=O)(=O)C1(Br)S(=O)(=O)OCCOS1(=O)=O
inactive: [1] > 100 µM | [2] > 100 µM | [3] > 100 µM | [4] > 100 µM | [5] > 100 µM | [6] > 100 µM | [7] > 100 µM | [8] > 100 µM | [9] > 100 µM | [11] > 100 µM | [12] > 100 µM | [13] > 100 µM | [14] > 100 µM | [15] > 100 µM | [16] > 100 µM | [17] > 100 µM | [18] > 100 µM | [19] > 100 µM

CCCCc1c2c(nc3c1CCC/C3=C\c1ccccc1)C(=O)CCC2
inactive: [1] 22.2 µM | [2] 29.1 µM | [3] 19.4 µM | [4] 24.5 µM | [5] 16.3 µM | [6] 19.6 µM | [7] 22.8 µM | [8] 24.8 µM | [9] 22 µM | [10] 18.7 µM | [11] 7.24 µM | [12] 35.6 µM | [13] 13.2 µM | [14] 19.1 µM | [15] 18.4 µM | [16] 22.6 µM | [17] 26 µM | [18] 15.5 µM | [19] 24.2 µM

CC1=NN(c2ccccc2)C(=O)C1C(=O)C(=O)Nc1ccc(C)cc1C (stereo not given)
inactive: [1] > 100 µM | [2] > 100 µM | [3] > 100 µM | [4] > 100 µM | [5] > 100 µM | [6] > 100 µM | [7] > 100 µM | [8] > 100 µM | [9] > 94.2 µM | [10] > 100 µM | [11] > 100 µM | [12] > 100 µM | [13] > 100 µM | [14] > 100 µM | [15] > 100 µM | [16] > 100 µM | [17] > 100 µM | [18] > 100 µM | [19] > 100 µM
